Results published in the supplement of paper PMC10307832.

Tests used:
Assay in all cases: relative viability (nuclei count vs DMSO), 5 days (fraction); higher = more cells survive
201T = test system: 201T
Method in brief: (§1)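 Five library-drug doses in √10 steps were combined with a fixed anchor-drug dose, or a single drug was given alone, by pin tool to lung cancer cell lines in 1536-well plates the day after seeding. Nuclei were stained and counted after 5 days. Relative viability is the nuclei count in treated wells over that in vehicle wells, taken as the median of duplicate plates.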

BEN = test system: BEN
Method in brief: as §1

CAL-12T = test system: CAL-12T
Method in brief: as §1

HCC-827 = test system: HCC-827
Method in brief: as §1

HOP-62 = test system: HOP-62
Method in brief: as §1

LCLC-103H = test system: LCLC-103H
Method in brief: as §1

LCLC-97TM1 = test system: LCLC-97TM1
Method in brief: as §1

LXF-289 = test system: LXF-289
Method in brief: as §1

NCI-H1395 = test system: NCI-H1395
Method in brief: as §1

NCI-H1437 = test system: NCI-H1437
Method in brief: as §1

NCI-H1650 = test system: NCI-H1650
Method in brief: as §1

NCI-H1793 = test system: NCI-H1793
Method in brief: as §1

NCI-H1944 = test system: NCI-H1944
Method in brief: as §1

NCI-H2087 = test system: NCI-H2087
Method in brief: as §1

NCI-H2228 = test system: NCI-H2228
Method in brief: as §1

NCI-H2405 = test system: NCI-H2405
Method in brief: as §1

NCI-H3122 = test system: NCI-H3122
Method in brief: as §1

NCI-H322M = test system: NCI-H322M
Method in brief: as §1

NCI-H647 = test system: NCI-H647
Method in brief: as §1

NCI-H727 = test system: NCI-H727
Method in brief: as §1

RERF-LC-KJ = test system: RERF-LC-KJ
Method in brief: as §1

SK-LU-1 = test system: SK-LU-1
Method in brief: as §1

## C=C1C(=O)O[C@@H](CCCCCCCC)[C@@H]1C(=O)O [C-75] + COc1cc2c(Oc3ccc(NC(=O)C4(C(=O)Nc5ccc(F)cc5)CC4)cc3F)ccnc2cc1OCCCN1CCOCC1 [Foretinib] (partner 0.25 µM)
201T; first compound 0.08 µM
  relative viability: 1.08
201T; first compound 0.253 µM
  relative viability: 1.24
201T; first compound 0.8 µM
  relative viability: 1.08
201T; first compound 2.53 µM
  relative viability: 0.64
201T; first compound 8 µM
  relative viability: 1.03
BEN; first compound 0.08 µM
  relative viability: 0.712
BEN; first compound 0.253 µM
  relative viability: 0.671
BEN; first compound 0.8 µM
  relative viability: 0.547
BEN; first compound 8 µM
  relative viability: 0.478
CAL-12T; first compound 0.08 µM
  relative viability: 1.17
CAL-12T; first compound 0.253 µM
  relative viability: 1.34
CAL-12T; first compound 0.8 µM
  relative viability: 1.07
CAL-12T; first compound 2.53 µM
  relative viability: 1.05
CAL-12T; first compound 8 µM
  relative viability: 1.25
HCC-827; first compound 0.08 µM
  relative viability: 1.02
HCC-827; first compound 0.253 µM
  relative viability: 1.05
HCC-827; first compound 0.8 µM
  relative viability: 1.04
HCC-827; first compound 2.53 µM
  relative viability: 0.965
HCC-827; first compound 8 µM
  relative viability: 0.945
HOP-62; first compound 0.08 µM
  relative viability: 1.1
HOP-62; first compound 0.253 µM
  relative viability: 1.06
HOP-62; first compound 0.8 µM
  relative viability: 1.14
HOP-62; first compound 2.53 µM
  relative viability: 0.966
HOP-62; first compound 8 µM
  relative viability: 1.09
LCLC-103H; first compound 0.08 µM
  relative viability: 0.814
LCLC-103H; first compound 0.253 µM
  relative viability: 0.736
LCLC-103H; first compound 0.8 µM
  relative viability: 0.687
LCLC-103H; first compound 2.53 µM
  relative viability: 0.598
LCLC-103H; first compound 8 µM
  relative viability: 0.743
LCLC-97TM1; first compound 0.08 µM
  relative viability: 0.934
LCLC-97TM1; first compound 0.253 µM
  relative viability: 1.01
LCLC-97TM1; first compound 0.8 µM
  relative viability: 0.951
LCLC-97TM1; first compound 2.53 µM
  relative viability: 0.847
LCLC-97TM1; first compound 8 µM
  relative viability: 0.926
LXF-289; first compound 0.08 µM
  relative viability: 0.949
LXF-289; first compound 0.253 µM
  relative viability: 0.965
LXF-289; first compound 0.8 µM
  relative viability: 0.932
LXF-289; first compound 2.53 µM
  relative viability: 0.654
LXF-289; first compound 8 µM
  relative viability: 0.948
NCI-H1395; first compound 0.08 µM
  relative viability: 0.894
NCI-H1395; first compound 0.253 µM
  relative viability: 1.02
NCI-H1395; first compound 0.8 µM
  relative viability: 0.948
NCI-H1395; first compound 2.53 µM
  relative viability: 1.03
NCI-H1395; first compound 8 µM
  relative viability: 1.13
NCI-H1437; first compound 0.08 µM
  relative viability: 1.27
NCI-H1437; first compound 0.253 µM
  relative viability: 1.45
NCI-H1437; first compound 0.8 µM
  relative viability: 1.28
NCI-H1437; first compound 2.53 µM
  relative viability: 1.13
NCI-H1437; first compound 8 µM
  relative viability: 1.23
NCI-H1650; first compound 0.08 µM
  relative viability: 1.2
NCI-H1650; first compound 0.253 µM
  relative viability: 1.41
NCI-H1650; first compound 2.53 µM
  relative viability: 1.11
NCI-H1650; first compound 8 µM
  relative viability: 1.04
NCI-H1793; first compound 0.08 µM
  relative viability: 0.572
NCI-H1793; first compound 0.253 µM
  relative viability: 0.721
NCI-H1793; first compound 0.8 µM
  relative viability: 0.569
NCI-H1793; first compound 2.53 µM
  relative viability: 0.46
NCI-H1793; first compound 8 µM
  relative viability: 0.658
NCI-H1944; first compound 0.08 µM
  relative viability: 0.899
NCI-H1944; first compound 0.253 µM
  relative viability: 0.756
NCI-H1944; first compound 0.8 µM
  relative viability: 0.829
NCI-H1944; first compound 8 µM
  relative viability: 0.834
NCI-H2087; first compound 0.08 µM
  relative viability: 1.15
NCI-H2087; first compound 0.253 µM
  relative viability: 1.07
NCI-H2087; first compound 0.8 µM
  relative viability: 0.943
NCI-H2087; first compound 2.53 µM
  relative viability: 0.725
NCI-H2087; first compound 8 µM
  relative viability: 0.891
NCI-H2228; first compound 0.08 µM
  relative viability: 0.803
NCI-H2228; first compound 0.253 µM
  relative viability: 0.919
NCI-H2228; first compound 0.8 µM
  relative viability: 0.85
NCI-H2228; first compound 2.53 µM
  relative viability: 0.839
NCI-H2228; first compound 8 µM
  relative viability: 0.863
NCI-H2405; first compound 0.08 µM
  relative viability: 1.05
NCI-H2405; first compound 0.253 µM
  relative viability: 1
NCI-H2405; first compound 0.8 µM
  relative viability: 1.05
NCI-H2405; first compound 2.53 µM
  relative viability: 0.882
NCI-H2405; first compound 8 µM
  relative viability: 1.05
NCI-H3122; first compound 0.08 µM
  relative viability: 0.966
NCI-H3122; first compound 0.253 µM
  relative viability: 0.848
NCI-H3122; first compound 0.8 µM
  relative viability: 0.936
NCI-H3122; first compound 2.53 µM
  relative viability: 0.952
NCI-H3122; first compound 8 µM
  relative viability: 0.983
NCI-H322M; first compound 0.08 µM
  relative viability: 0.928
NCI-H322M; first compound 0.253 µM
  relative viability: 1.33
NCI-H322M; first compound 0.8 µM
  relative viability: 0.839
NCI-H322M; first compound 2.53 µM
  relative viability: 0.902
NCI-H322M; first compound 8 µM
  relative viability: 0.964
NCI-H647; first compound 0.08 µM
  relative viability: 1.23
NCI-H647; first compound 0.253 µM
  relative viability: 1.12
NCI-H647; first compound 0.8 µM
  relative viability: 0.998
NCI-H647; first compound 2.53 µM
  relative viability: 1.18
NCI-H647; first compound 8 µM
  relative viability: 0.97
NCI-H727; first compound 0.08 µM
  relative viability: 0.796
NCI-H727; first compound 0.253 µM
  relative viability: 1.33
NCI-H727; first compound 0.8 µM
  relative viability: 0.695
NCI-H727; first compound 8 µM
  relative viability: 0.917
RERF-LC-KJ; first compound 0.08 µM
  relative viability: 0.94
RERF-LC-KJ; first compound 0.253 µM
  relative viability: 0.973
RERF-LC-KJ; first compound 0.8 µM
  relative viability: 0.909
RERF-LC-KJ; first compound 2.53 µM
  relative viability: 0.797
RERF-LC-KJ; first compound 8 µM
  relative viability: 0.961
SK-LU-1; first compound 0.08 µM
  relative viability: 0.794
SK-LU-1; first compound 0.253 µM
  relative viability: 0.721
SK-LU-1; first compound 0.8 µM
  relative viability: 0.881
SK-LU-1; first compound 2.53 µM
  relative viability: 0.736
SK-LU-1; first compound 8 µM
  relative viability: 0.766
